# Data as given in patent US9512107B2, “Therapeutically active compositions and their methods of use” (Agios Pharmaceuticals, Inc., priority 2012, dated 2016).
# Residue numbers refer to the chain shown, from its start.
# Assays:
# [1] = test system: U87MG pLVX-IDH2 R140Q-neo cells; experiment: U87MG pLVX-IDH2 R140Q-neo cell based assay, 2-HG in media by LC-MS at 48 hours; conditions: for IC50: Homo sapiens, U-87 MG
# Outline: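 U87MG cells stably expressing IDH2 R140Q were seeded overnight, then exposed to compound at 0.2% final DMSO at 37 °C, 5% CO2. 2-HG in the medium was quantified by LC-MS at 48 h. Growth inhibition was read by CellTiter-Glo luminescence at 72 h.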
# IDH2 R172K = biological target: T1, IDH2 R172K (Homo sapiens, UniProt P48735, R172K); experiment: IDH2 R172K enzymatic assay (NADPH cofactor depletion, diaphorase/resazurin readout); assay type: biochemical; conditions: read-out: Enz R172K
# T1 sequence (P48735 40-452 R172K): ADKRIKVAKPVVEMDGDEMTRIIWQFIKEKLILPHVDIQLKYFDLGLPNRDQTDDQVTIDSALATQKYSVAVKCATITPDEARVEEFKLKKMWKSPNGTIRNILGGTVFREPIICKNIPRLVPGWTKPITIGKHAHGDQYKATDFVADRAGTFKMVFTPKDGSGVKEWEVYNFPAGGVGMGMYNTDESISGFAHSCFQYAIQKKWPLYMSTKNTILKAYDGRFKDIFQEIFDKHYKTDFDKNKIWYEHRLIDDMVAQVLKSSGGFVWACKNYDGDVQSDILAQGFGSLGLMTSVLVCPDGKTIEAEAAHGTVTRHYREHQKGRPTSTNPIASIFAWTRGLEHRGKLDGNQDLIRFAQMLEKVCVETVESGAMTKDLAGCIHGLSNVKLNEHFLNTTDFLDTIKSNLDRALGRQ
# Method: Compounds are assayed for IDH2 R172K inhibitory activity through a cofactor depletion assay. […] The reaction is terminated by the addition of a second enzyme, diaphorase, and a corresponding substrate, resazurin. Diaphorase reduces resazurin to the highly fluorescent resorufin with the concomitant oxidation of NADPH to NADP, both halting the IDH2 reaction by depleting the available cofactor pool and facilitating quantitation of the amount of cofactor remaining after a specific time period through quantitative production of an easily detected fluorophore.
# The test compound is then incubated for one hour at room temperature with the enzyme; before starting the IDH2 reaction with the addition of 10 μl of substrate mix containing 50 μM NADPH and 6.3 mM α-KG in the buffer described above. After a further one hour of incubation at room temperature, the reaction is halted and the remaining NADPH measured through conversion of resazurin to resorufin by the addition of 25 μl Stop Mix (36 μg/ml diaphorase enzyme and 60 μM resazurin; in buffer).
# IDH2 R140Q = biological target: T2, IDH2 R140Q (Homo sapiens, UniProt P48735, R140Q); experiment: IDH2 R140Q enzymatic assay (cofactor depletion, similar format); assay type: biochemical; conditions: read-out: Enz R140Q
# T2 sequence (P48735 40-452 R140Q): T1 sequence (P48735 40-452 R172K) with R101Q, K133R
Compound,IC50 [1] [nM],IC50 (IDH2 R172K) [nM],IC50 (IDH2 R140Q) [nM],Cell R140Q [1]
CC(C)Nc1nc(Nc2ccccc2)nc(-c2ccccc2NS(C)(=O)=O)n1 [Compound 109],1000 to 10000,1000 to 10000,100 to 1000,
c1ccc(Nc2nc(NC3CC3)nc(-c3ccccc3)n2)cc1 [Compound 110],< 100,100 to 1000,< 100,
c1ccc(Nc2nc(NCC3CC3)nc(-c3ccccc3)n2)cc1 [Compound 111],< 100,< 100,< 100,
CC(C)(C)Nc1nc(Nc2ccccc2)nc(-c2ccccc2)n1 [Compound 112],100 to 1000,100 to 1000,< 100,
c1ccc(Nc2nc(NC3CCCCC3)nc(-c3ccccc3)n2)cc1 [Compound 113],< 100,100 to 1000,< 100,
CC(C)Nc1nc(Nc2ccccc2)nc(-c2cccnc2)n1 [Compound 114],1000 to 10000,1000 to 10000,100 to 1000,
COc1cccc(-c2nc(Nc3ccccc3)nc(NC(C)C)n2)c1 [Compound 115],100 to 1000,100 to 1000,< 100,
CC(C)Nc1nc(Nc2ccccc2)nc(-c2ccc(F)cc2F)n1 [Compound 118],100 to 1000,100 to 1000,< 100,
CC(C)Nc1nc(Nc2ccccc2)nc(-c2ccnn2C)n1 [Compound 119],1000 to 10000,> 10000,100 to 1000,
COc1ccccc1-c1nc(Nc2ccccc2)nc(NC(C)C)n1 [Compound 120],< 100,100 to 1000,< 100,
CC(C)Nc1nc(Nc2ccccc2)nc(-c2ccccc2Cl)n1 [Compound 121],< 100,< 100,< 100,
CC(C)Nc1nc(Nc2ccccc2)nc(-c2ccc(Cl)cc2)n1 [Compound 122],1000 to 10000,1000 to 10000,100 to 1000,
Cc1ccccc1-c1nc(Nc2ccccc2)nc(NC(C)C)n1 [Compound 123],100 to 1000,100 to 1000,< 100,
FC(F)(F)CNc1nc(Nc2ccccc2)nc(-c2ccccc2)n1 [Compound 126],< 100,100 to 1000,< 100,
CC(C)Nc1nc(Nc2ccccc2)nc(-c2cccc(C#N)c2)n1 [Compound 128],1000 to 10000,1000 to 10000,100 to 1000,
"CC(C)Nc1nc(Nc2ccncc2)nc(-c2ccccc2)n1 [Compound 129, N^2-isopropyl-6-phenyl-N^4-(pyridin-4-yl)-1,3,5-triazine-2,4-diamine]",100 to 1000,1000 to 10000,< 100,
CC(C)Nc1nc(Nc2cccc(C#N)c2)nc(-c2ccccc2)n1 [Compound 130],< 100,100 to 1000,< 100,
CC(C)Nc1nc(Nc2ccc(F)cc2)nc(-c2ccccc2)n1 [Compound 132],< 100,100 to 1000,< 100,
c1ccc(Nc2nc(NCc3ccccn3)nc(-c3ccccc3)n2)cc1 [Compound 135],1000 to 10000,> 10000,100 to 1000,
CC(C)Nc1nc(Nc2ccccc2)nc(-c2ccccc2C#N)n1 [Compound 139],100 to 1000,1000 to 10000,< 100,
CC(C)Nc1nc(Nc2ccc(F)cc2F)nc(-c2ccccc2)n1 [Compound 140],100 to 1000,1000 to 10000,< 100,
CC(C)Nc1nc(Nc2ccc(C#N)cc2)nc(-c2ccccc2)n1 [Compound 141],100 to 1000,100 to 1000,< 100,
CC(C)Nc1nc(Nc2ccc(Cl)cc2)nc(-c2ccccc2)n1 [Compound 143],100 to 1000,100 to 1000,< 100,

Compound,IC50 [1] [nM],IC50 (IDH2 R172K) [nM],IC50 (IDH2 R140Q) [nM],Cell R140Q [1]
Cc1ccccc1Nc1nc(NC(C)C)nc(-c2ccccc2)n1 [Compound 147],100 to 1000,1000 to 10000,100 to 1000,
CC(C)Nc1nc(Nc2ccccc2)nc(-c2ccn[nH]2)n1 [Compound 148],100 to 1000,1000 to 10000,100 to 1000,
CC(C)Nc1nc(Nc2cccc(Cl)c2)nc(-c2ccccc2)n1 [Compound 149],< 100,< 100,< 100,
CC(C)Nc1nc(Nc2cccc(CO)c2)nc(-c2ccccc2)n1 [Compound 150],100 to 1000,1000 to 10000,100 to 1000,
CC(C)Nc1nc(Nc2ccccc2)nc(-c2cccc(S(C)(=O)=O)c2)n1 [Compound 151],100 to 1000,100 to 1000,100 to 1000,
CC(C)Nc1nc(Nc2cccnc2)nc(-c2ccccc2)n1 [Compound 154],100 to 1000,1000 to 10000,< 100,
CC(C)Nc1nc(Nc2ccccn2)nc(-c2ccccc2)n1 [Compound 155],,> 10000,100 to 1000,No Fit
CC(C)Nc1nc(Nc2ccccc2)nc(-c2ccncc2)n1 [Compound 156],100 to 1000,1000 to 10000,100 to 1000,
CC(C)Nc1nc(Nc2ccccc2)nc(-c2cccc(Cl)c2)n1 [Compound 158],100 to 1000,100 to 1000,< 100,
COc1ccc(Nc2nc(NC(C)C)nc(-c3ccccc3)n2)cc1 [Compound 159],100 to 1000,1000 to 10000,100 to 1000,
"CC(C)OC(=O)Nc1nc(Nc2ccccc2)nc(-c2ccccc2)n1 [Compound 160, isopropyl 4-phenyl-6-(phenylamino)-1,3,5-triazin-2-ylcarbamate]",100 to 1000,100 to 1000,< 100,
CC(C)Nc1nc(Nc2ccccc2Cl)nc(-c2ccccc2)n1 [Compound 162],1000 to 10000,1000 to 10000,100 to 1000,
CC(C)C(=O)Nc1nc(Nc2ccccc2)nc(-c2ccccc2)n1 [Compound 167],< 100,100 to 1000,< 100,
c1ccc(Nc2nc(NC3CCOCC3)nc(-c3ccccc3)n2)cc1 [Compound 168],< 100,100 to 1000,< 100,
CC(C)Nc1nc(Nc2ccon2)nc(-c2ccccc2)n1 [Compound 169],100 to 1000,100 to 1000,< 100,
CC(C)Nc1nc(NC(=O)Cc2ccccc2)nc(-c2ccccc2)n1 [Compound 170],1000 to 10000,100 to 1000,100 to 1000,
O=C(Cc1ccccc1)Nc1nc(Nc2ccccc2)nc(-c2ccccc2)n1 [Compound 172],100 to 1000,100 to 1000,< 100,
Clc1cccc(Nc2nc(NC3CCOCC3)nc(-c3ccccc3)n2)c1 [Compound 173],< 100,< 100,< 100,
"c1ccc(Nc2nc(NC3CCOC3)nc(-c3ccccc3)n2)cc1 (stereo not drawn) [Compound 174, N^2,6-diphenyl-N^4-(tetrahydrofuran-3-yl)-1,3,5-triazine-2,4-diamine]",< 100,100 to 1000,< 100,
"c1ccc(Nc2nc(NC3COC3)nc(-c3ccccc3)n2)cc1 [Compound 175, N^2-(oxetan-3-yl)-N^4,6-diphenyl-1,3,5-triazine-2,4-diamine]",< 100,100 to 1000,< 100,
"CC1(Nc2nc(Nc3ccccc3)nc(-c3ccccc3)n2)COC1 [Compound 176, N^2-(3-methyloxetan-3-yl)-N^4,6-diphenyl-1,3,5-triazine-2,4-diamine]",100 to 1000,100 to 1000,< 100,
"CC(C)Nc1nc(Nc2cccc(S(=O)(=O)N(C)C)c2)nc(-c2ccccc2)n1 [Compound 177, 3-(4-(isopropylamino)-6-phenyl-1,3,5-triazin-2-ylamino)-N,N-dimethylbenzenesulfonamide]",< 100,100 to 1000,< 100,
"CC(C)Nc1nc(Nc2cccc(F)c2)nc(-c2ccccc2)n1 [Compound 178, N-(3-Fluoro-phenyl)-N′-isopropyl-6-phenyl-[1,3,5]triazine-2,4-diamine]",< 100,< 100,< 100,
